In patent publication US11161854B2, “Indazolyl-spiro[2.2]pentane-carbonitrile derivatives as LRRK2 inhibitors, pharmaceutical compositions, and uses thereof” (Merck Sharp & Dohme Corp., priority 2017, dated 2021) one finds IC50 data, which are given here for 36 molecules.

The term IC50 denotes the concentration needed to halve the response being measured.

Structures are written as SMILES.

GST-tagged truncated human mutant G2019S LRRK2, sequence (Q5S007 970-2527 G2019S): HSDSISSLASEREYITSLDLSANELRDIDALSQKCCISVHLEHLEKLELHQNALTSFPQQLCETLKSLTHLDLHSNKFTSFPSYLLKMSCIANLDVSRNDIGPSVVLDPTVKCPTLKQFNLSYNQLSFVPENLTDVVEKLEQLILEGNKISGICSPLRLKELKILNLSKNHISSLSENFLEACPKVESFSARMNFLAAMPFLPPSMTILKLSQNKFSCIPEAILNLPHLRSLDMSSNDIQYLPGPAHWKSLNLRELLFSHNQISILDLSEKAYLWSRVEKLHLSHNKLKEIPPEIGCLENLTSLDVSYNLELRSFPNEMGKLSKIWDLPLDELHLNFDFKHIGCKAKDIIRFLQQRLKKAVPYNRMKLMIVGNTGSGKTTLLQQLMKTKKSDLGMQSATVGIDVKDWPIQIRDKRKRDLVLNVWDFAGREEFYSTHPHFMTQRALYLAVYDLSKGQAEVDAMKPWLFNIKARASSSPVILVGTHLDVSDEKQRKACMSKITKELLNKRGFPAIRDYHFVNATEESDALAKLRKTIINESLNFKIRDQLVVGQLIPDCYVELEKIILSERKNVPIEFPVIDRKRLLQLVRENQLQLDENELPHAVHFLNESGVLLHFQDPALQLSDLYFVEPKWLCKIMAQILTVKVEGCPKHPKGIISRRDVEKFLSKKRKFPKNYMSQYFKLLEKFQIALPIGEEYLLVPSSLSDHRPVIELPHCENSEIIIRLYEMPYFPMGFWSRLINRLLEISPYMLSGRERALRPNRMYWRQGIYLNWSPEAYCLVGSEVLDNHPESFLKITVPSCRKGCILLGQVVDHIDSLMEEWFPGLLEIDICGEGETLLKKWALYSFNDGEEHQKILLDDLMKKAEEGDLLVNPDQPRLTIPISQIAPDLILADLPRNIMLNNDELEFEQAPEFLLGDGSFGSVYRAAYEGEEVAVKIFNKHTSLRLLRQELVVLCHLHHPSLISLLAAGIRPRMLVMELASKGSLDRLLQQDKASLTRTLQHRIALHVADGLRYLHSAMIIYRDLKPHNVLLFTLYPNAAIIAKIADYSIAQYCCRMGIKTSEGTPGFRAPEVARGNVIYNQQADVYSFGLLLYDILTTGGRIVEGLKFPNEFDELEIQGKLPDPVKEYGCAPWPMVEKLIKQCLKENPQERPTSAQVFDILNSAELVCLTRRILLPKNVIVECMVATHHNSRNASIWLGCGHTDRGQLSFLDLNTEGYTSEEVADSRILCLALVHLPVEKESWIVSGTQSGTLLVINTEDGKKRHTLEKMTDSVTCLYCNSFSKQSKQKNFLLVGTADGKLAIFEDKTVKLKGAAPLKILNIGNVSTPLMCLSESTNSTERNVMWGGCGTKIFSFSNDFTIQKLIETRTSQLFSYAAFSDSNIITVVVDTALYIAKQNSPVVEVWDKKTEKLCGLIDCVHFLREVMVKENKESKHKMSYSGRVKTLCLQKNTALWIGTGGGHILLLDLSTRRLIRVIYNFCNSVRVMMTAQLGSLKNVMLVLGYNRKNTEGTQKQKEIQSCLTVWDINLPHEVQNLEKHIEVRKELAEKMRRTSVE

This experiment concerns the target GST-tagged truncated human mutant G2019S LRRK2 (Homo sapiens (Human), UniProt Q5S007, G2019S). The experiment can be described thus: LRRK2 G2019S Km ATP LanthaScreen Assay. The format is biochemical. The conditions noted are these: 134 μM ATP (Km ATP); fluorescein-labeled LRRKtide substrate; mean IC50 values. The method, then:
The IC50 values reported herein were measured as follows.
Biological Assay: LRRK2 Km ATP LanthaScreen™ Assay
The data presented for the Km ATP LanthaScreen™ Assay represents mean IC50 values based on several test results and may have reasonable deviations depending on the specific conditions and reagents used. Assays were performed in the presence of 134 μM ATP (Km ATP). Upon completion, the assay was stopped and phosphorylated substrate detected with a terbium (Tb)-labeled anti-pERM antibody (cat. no. PV4898). The compound dose response was prepared by diluting a 10 mM stock of compound to a maximum concentration of […] in 100% dimethylsulfoxide followed by custom fold serial dilution in dimethylsulfoxide nine times. Twenty nanoliters of each dilution was spotted via a Labcyte Echo onto a 384-well black-sided plate (Corning 3575) followed by 15 μl of a 1.25 nM enzyme solution in 1× assay buffer (50 mM Tris pH 8.5, 10 mM MgCl2, 0.01% Brij-35, 1 mM EGTA, 2 mM dithiothreitol, 0.05 mM sodium orthovanadate). Following a 15-minute incubation at room temperature, the kinase reaction was started with the addition of 5 μl of 400 nM fluorescein-labeled LRRKtide peptide substrate and 134 μM ATP solution in 1× assay buffer. The reaction was allowed to progress at ambient temperature for 90 minutes. The reaction was then stopped by the addition of 20 μl of TR-FRET Dilution Buffer (Life Technologies, Carlsbad, Calif.) containing 2 nM Tb-labeled anti-phospho LRRKtide antibody and 10 mM EDTA (Life Technologies, Carlsbad, Calif.). After an incubation of 1 hour at room temperature, the plate was read on an EnVision multimode plate reader (Perkin Elmer, Waltham, Mass.) with an excitation wavelength of 337 nm (Laser) and a reading emission at both 520 and 495 nm. […] Abase uses a 4 parameter (4P) logistic fit based on the Levenberg-Marquardt algorithm.
For orientation: In TR-FRET formats the signal depends on donor and acceptor labels being close together.
For the molecule `CC(C)(O)C1CN(c2cc(-n3ncc4ccc([C@]5(C#N)CC56CC6)cc43)ncn2)CCO1` (single isomer, unassigned) [Example 4.3-1, 1-(1-(6-(2-(2-hydroxypropan-2-yl)morpholino)pyrimidin-4-yl)-1H-indazol-6-yl)spiro[2.2]pentane-1-carbonitrile], the IC50 is 1.8 nM. With `N#C[C@@]1(c2ccc3cnn(-c4cc(N5CCOC(CO)C5)ncn4)c3c2)CC12CC2` (stereo in doubt) [Example 4.9-1, 1-(1-(6-(2-(hydroxymethyl)morpholino)pyrimidin-4-yl)-1H-indazol-6-yl)spiro[2.2]pentane-1-carbonitrile] the figure was 0.6 nM; with `COc1nc(N2CC3(C(C)(C)O)CC2C3)cc(-n2ncc3ccc(C4(C#N)CC45CC5)cc32)n1` (single isomer, unassigned) [Example 2.5-2, 1-(1-(6-(4-(2-hydroxypropan-2-yl)-2-azabicyclo[2.1.1]hexan-2-yl)-2-methoxypyrimidin-4-yl)-1H-indazol-6-yl)spiro[2.2]pentane-1-carbonitrile], 0.8 nM. With `CC1(O)CC2(CN(c3cc(-n4ncc5ccc([C@]6(C#N)CC67CC7)cc54)ncn3)C2)C1` [Example 3.9-2] the figure was 1.5 nM; with `CC(C)(O)[C@@H]1CCN(c2cc(-n3ncc4cnc(C5(C#N)CC56CC6)cc43)ccn2)C1` (single isomer, unassigned) [Example 6.6-1], 28.5 nM; with `CC(C)(O)[C@@H]1CCN(c2cc(-n3ncc4ccc([C@]5(C#N)CC56CC6)cc43)ccn2)C1` [Example 6.2-2], 0.9 nM. `CC1CN(c2cc(-n3ncc4ccc([C@]5(C#N)CC56CC6)cc43)ncn2)CC1C(C)(C)O` (single isomer, unassigned) [Example 3.6-4] had a concentration for half-maximal inhibition (IC50) of 2.1 nM. For `CS(=O)(=O)N1CCN(c2cc(-n3ncc4ccc([C@]5(C#N)CC56CC6)cc43)ncn2)CC1` [Example 4.7], the IC50 came out at 1.3 nM. With `COCc1nc(N2C[C@@H](C)[C@@](C)(O)[C@@H](C)C2)cc(-n2ncc3ccc([C@]4(C#N)CC45CC5)cc32)n1` [Example 4.10] the figure was 0.6 nM; with `N#C[C@@]1(c2ccc3cnn(-c4cc(C5CC5)ncn4)c3c2)CC12CC2` [Example 4.21], 6.5 nM. With `COc1nc(N2CC3(C(C)(C)O)CC2C3)cc(-n2ncc3ccc(C4(C#N)CC45CC5)cc32)n1` (single isomer, unassigned) [Example 2.5-1, 1-(1-(6-(4-(2-hydroxypropan-2-yl)-2-azabicyclo[2.1.1]hexan-2-yl)-2-methoxypyrimidin-4-yl)-1H-indazol-6-yl)spiro[2.2]pentane-1-carbonitrile] the figure was 0.9 nM; with `N#CC1(c2ccc3cnn(-c4cc(N5CC6(CCOC6)C5)ncn4)c3c2)CC12CC2` (stereo not drawn) [Example 1.5], 0.9 nM; with `CC(C)(O)C12CC(C1)N(c1cc(-n3ncc4cc(F)c(C5(C#N)CC56CC6)cc43)ncn1)C2` (single isomer, unassigned) [Example 5.5-2, 1-(5-fluoro-1-(6-(4-(2-hydroxypropan-2-yl)-2-azabicyclo[2.1.1]hexan-2-yl)pyrimidin-4-yl)-1H-indazol-6-yl)spiro[2.2]pentane-1-carbonitrile], 31.6 nM. `CC(C)(O)C12CC(C1)N(c1cc(-n3ncc4ccc([C@]5(C#N)CC56CC6)cc43)nc(N3CCC3)n1)C2` [Example 8.5, (S)-1-(1-(2-(azetidin-1-yl)-6-(4-(2-hydroxypropan-2-yl)-2-azabicyclo[2.1.1]hexan-2-yl)pyrimidin-4-yl)-1H-indazol-6-yl)spiro[2.2]pentane-1-carbonitrile] registered an IC50 of 9.8 nM.

Consider `CNc1nc(N2CC[C@H](C(F)F)C2)cc(-n2ncc3ccc(C4(C#N)CC45CC5)cc32)n1` (single isomer, unassigned) [Example 2.8-2], for which 1.1 nM corresponded to half-maximal inhibition (IC50).

Consider `C[C@@H]1CN(c2cc(-n3ncc4ccc([C@]5(C#N)CC56CC6)cc43)ncn2)CCN1C1CCOC1` (single isomer, unassigned) [Example 3.7-4], for which the IC50 stood at 2 nM. With `COCc1nc(N2CCN(C3COC3)[C@@H](C)C2)cc(-n2ncc3ccc([C@]4(C#N)CC45CC5)cc32)n1` [Example 4.11-2] the figure was 0.7 nM; with `COC1(C(C)(C)O)CCN(c2cc(-n3ncc4ccc([C@@]5(C#N)CC56CC6)cc43)ncn2)C1` (single isomer, unassigned) [Example 3.10-1], 15.1 nM. With `CC(C)(O)C1CN(c2cc(-n3ncc4ccc([C@]5(C#N)CC56CC6)cc43)ncn2)CCO1` (single isomer, unassigned) [Example 4.3-2, 1-(1-(6-(2-(2-hydroxypropan-2-yl)morpholino)pyrimidin-4-yl)-1H-indazol-6-yl)spiro[2.2]pentane-1-carbonitrile], it took 0.6 nM to reach half-maximal inhibition (IC50). As to `COC1(C(C)(C)O)CCN(c2cc(-n3ncc4ccc([C@@]5(C#N)CC56CC6)cc43)ncn2)C1` (single isomer, unassigned) [Example 3.10-3], the IC50 was found to be 3.1 nM.

With `Cc1nc(N2CC3(C(C)(C)O)CC2C3)cc(-n2ncc3ccc(C4(C#N)CC45CC5)cc32)n1` (single isomer, unassigned) [Example 2.4-2, 1-(1-(6-(4-(2-hydroxypropan-2-yl)-2-azabicyclo[2.1.1]hexan-2-yl)-2-methylpyrimidin-4-yl)-1H-indazol-6-yl)spiro[2.2]pentane-1-carbonitrile], the half-maximal inhibitory concentration (IC50) stood at 0.6 nM. Compared with the last molecule, the IC50 is about 5.2-fold lower. In turn, `COC1(C(C)(C)O)CCN(c2cc(-n3ncc4ccc([C@]5(C#N)CC56CC6)cc43)ncn2)C1` (single isomer, unassigned) [Example 3.10-4] registered an IC50 of 0.9 nM.

Molecule `CC(C)(O)[C@@H]1CCN(c2cc(-n3ncc4cc(F)c(C5(C#N)CC56CC6)cc43)ncn2)C1` (single isomer, unassigned) [Example 5.7-2] came in with an IC50 of 2.6 nM. This IC50 is about 2.9-fold higher than that of the molecule before. Consider `C[C@@H]1CN(c2cc(-n3ncc4ccc([C@@]5(C#N)CC56CC6)cc43)ncn2)CCN1C1CCOC1` (single isomer, unassigned) [Example 3.7-1], for which the concentration for half-maximal inhibition (IC50) is 8 nM. With `CC(C)(O)C12CC(C1)N(c1cc(-n3ncc4ccc(C5(C#N)CC56CC6)cc43)cnn1)C2` (single isomer, unassigned) [Example 10.3-1, (R or S)-1-(1-(6-(4-(2-hydroxypropan-2-yl)-2-azabicyclo[2.1.1]hexan-2-yl)pyridazin-4-yl)-1H-indazol-6-yl)spiro[2.2]pentane-1-carbonitrile] the figure was 35.2 nM. With `CC(C)(O)C12CC(C1)N(c1cc(-n3ncc4ccc([C@]5(C#N)CC56CC6)cc43)cc(F)n1)C2` [Example 6.3] the figure was 15 nM. As for `CC(C)(O)C1CN(c2cc(-n3ncc4ccc([C@]5(C#N)CC56CC6)cc43)ncn2)C1` [Example 4.4], half-maximal inhibition (IC50) was put at 0.6 nM. For `Cc1cc(-n2ncc3ccc([C@]4(C#N)CC45CC5)cc32)nc(N)n1` [Example 4.19], the half-inhibitory concentration (IC50) was 0.6 nM.

`CC(C)(O)C12CC(C1)N(c1cc(-n3ncc4ccc(C5(C#N)CC56CC6)cc43)ccn1)C2` (single isomer, unassigned) [Example 6.1, (R or S)-1-(1-(2-(4-(2-hydroxypropan-2-yl)-2-azabicyclo[2.1.1]hexan-2-yl)pyridin-4-yl)-1H-indazol-6-yl)spiro[2.2]pentane-1-carbonitrile] showed an IC50 of 1.2 nM. Consider `C[C@@H]1CN(c2cc(-n3ncc4cnc(C5(C#N)CC56CC6)cc43)ncn2)C[C@H](C)[C@]1(C)O` (single isomer, unassigned) [Example 5.4-2], for which the IC50 came out at 2.6 nM.

`COCc1nc(N2CC3(C(C)(C)O)CC2C3)cc(-n2ncc3ccc(C4(C#N)CC45CC5)cc32)n1` (single isomer, unassigned) [Example 2.3-1, (R or S)-1-(1-(6-(4-(2-hydroxypropan-2-yl)-2-azabicyclo[2.1.1]hexan-2-yl)-2-(methoxymethyl)pyrimidin-4-yl)-1H-indazol-6-yl)spiro[2.2]pentane-1-carbonitrile] displayed an IC50 of 1.1 nM. As to `CC(C)(O)[C@@H]1CCN(c2cc(-n3ncc4ccc([C@@]5(C#N)CC56CC6)cc43)ccn2)C1` [Example 6.2-1], the midpoint of inhibition, the IC50, lay at 1.8 nM. With `C[C@@H]1CN(c2cc(-n3ncc4cnc(C5(C#N)CC56CC6)cc43)ncn2)C[C@H](C)[C@]1(C)O` (single isomer, unassigned) [Example 5.4-1] the figure was 15 nM; with `N#C[C@@]1(c2ccc3cnn(-c4cc(N5CC(O)C6(CC6)C5)ncn4)c3c2)CC12CC2` (single isomer, unassigned) [Example 3.11-2], 1.4 nM. With `C[C@@H]1CN(c2cc(-n3ncc4ccc([C@]5(C#N)CC56CC6)cc43)ncn2)CCN1C1CCOC1` (single isomer, unassigned) [Example 3.7-2] the figure was 1.7 nM; with `CC(C)(O)[C@@H]1CCN(c2cc(-n3ncc4cnc(C5(C#N)CC56CC6)cc43)ccn2)C1` (single isomer, unassigned) [Example 6.6-2], 3.4 nM.
